# Calls of active or inactive are those of the source. The rule behind the calls is not given here.
# Biological target: T1, Exodeoxyribonuclease V (Escherichia coli (strain K12), UniProt P04993+P07648+P08394)
# T1 sequence (P04993 whole entry): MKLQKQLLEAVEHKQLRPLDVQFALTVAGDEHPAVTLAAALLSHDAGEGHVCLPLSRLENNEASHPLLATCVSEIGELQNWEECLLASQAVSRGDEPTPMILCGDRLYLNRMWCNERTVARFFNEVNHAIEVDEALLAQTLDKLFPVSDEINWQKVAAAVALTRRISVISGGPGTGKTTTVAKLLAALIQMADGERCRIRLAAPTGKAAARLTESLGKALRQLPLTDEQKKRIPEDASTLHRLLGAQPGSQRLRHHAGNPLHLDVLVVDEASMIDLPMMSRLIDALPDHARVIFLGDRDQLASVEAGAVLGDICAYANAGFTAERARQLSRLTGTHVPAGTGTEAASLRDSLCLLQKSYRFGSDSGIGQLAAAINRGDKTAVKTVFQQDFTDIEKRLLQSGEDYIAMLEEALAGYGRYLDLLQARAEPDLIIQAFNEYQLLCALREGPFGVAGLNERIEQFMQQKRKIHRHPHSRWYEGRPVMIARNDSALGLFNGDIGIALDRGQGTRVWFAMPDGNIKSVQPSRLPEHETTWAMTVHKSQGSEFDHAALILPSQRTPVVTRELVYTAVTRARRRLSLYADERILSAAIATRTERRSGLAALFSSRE
# T1 sequence (P07648 whole entry): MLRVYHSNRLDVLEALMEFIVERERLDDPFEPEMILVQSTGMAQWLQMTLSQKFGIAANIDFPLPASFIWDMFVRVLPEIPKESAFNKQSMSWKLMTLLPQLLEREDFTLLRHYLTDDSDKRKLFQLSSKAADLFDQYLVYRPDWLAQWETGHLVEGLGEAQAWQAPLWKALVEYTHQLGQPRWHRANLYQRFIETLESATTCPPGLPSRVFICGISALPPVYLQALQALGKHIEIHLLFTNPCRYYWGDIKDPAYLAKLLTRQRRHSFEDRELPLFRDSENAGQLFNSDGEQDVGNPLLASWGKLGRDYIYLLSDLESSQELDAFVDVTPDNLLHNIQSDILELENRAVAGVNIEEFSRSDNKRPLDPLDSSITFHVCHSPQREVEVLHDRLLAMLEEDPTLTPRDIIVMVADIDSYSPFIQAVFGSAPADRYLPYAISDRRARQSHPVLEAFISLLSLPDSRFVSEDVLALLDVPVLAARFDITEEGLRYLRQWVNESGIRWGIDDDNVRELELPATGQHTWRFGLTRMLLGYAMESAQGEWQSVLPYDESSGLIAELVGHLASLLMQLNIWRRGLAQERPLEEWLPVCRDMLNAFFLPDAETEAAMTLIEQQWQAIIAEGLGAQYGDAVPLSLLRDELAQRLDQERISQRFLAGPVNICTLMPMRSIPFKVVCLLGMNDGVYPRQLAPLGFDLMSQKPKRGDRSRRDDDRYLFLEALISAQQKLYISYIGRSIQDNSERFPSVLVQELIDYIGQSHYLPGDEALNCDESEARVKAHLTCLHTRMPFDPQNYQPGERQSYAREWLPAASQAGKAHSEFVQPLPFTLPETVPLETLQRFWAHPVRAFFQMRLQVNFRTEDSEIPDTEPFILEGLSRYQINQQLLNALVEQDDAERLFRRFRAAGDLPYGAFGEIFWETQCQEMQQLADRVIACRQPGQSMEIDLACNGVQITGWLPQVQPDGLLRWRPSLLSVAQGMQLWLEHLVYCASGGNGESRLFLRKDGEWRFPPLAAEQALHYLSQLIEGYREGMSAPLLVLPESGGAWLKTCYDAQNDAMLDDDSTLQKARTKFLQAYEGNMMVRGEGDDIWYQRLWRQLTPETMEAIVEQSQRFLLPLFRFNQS
# T1 sequence (P08394 whole entry): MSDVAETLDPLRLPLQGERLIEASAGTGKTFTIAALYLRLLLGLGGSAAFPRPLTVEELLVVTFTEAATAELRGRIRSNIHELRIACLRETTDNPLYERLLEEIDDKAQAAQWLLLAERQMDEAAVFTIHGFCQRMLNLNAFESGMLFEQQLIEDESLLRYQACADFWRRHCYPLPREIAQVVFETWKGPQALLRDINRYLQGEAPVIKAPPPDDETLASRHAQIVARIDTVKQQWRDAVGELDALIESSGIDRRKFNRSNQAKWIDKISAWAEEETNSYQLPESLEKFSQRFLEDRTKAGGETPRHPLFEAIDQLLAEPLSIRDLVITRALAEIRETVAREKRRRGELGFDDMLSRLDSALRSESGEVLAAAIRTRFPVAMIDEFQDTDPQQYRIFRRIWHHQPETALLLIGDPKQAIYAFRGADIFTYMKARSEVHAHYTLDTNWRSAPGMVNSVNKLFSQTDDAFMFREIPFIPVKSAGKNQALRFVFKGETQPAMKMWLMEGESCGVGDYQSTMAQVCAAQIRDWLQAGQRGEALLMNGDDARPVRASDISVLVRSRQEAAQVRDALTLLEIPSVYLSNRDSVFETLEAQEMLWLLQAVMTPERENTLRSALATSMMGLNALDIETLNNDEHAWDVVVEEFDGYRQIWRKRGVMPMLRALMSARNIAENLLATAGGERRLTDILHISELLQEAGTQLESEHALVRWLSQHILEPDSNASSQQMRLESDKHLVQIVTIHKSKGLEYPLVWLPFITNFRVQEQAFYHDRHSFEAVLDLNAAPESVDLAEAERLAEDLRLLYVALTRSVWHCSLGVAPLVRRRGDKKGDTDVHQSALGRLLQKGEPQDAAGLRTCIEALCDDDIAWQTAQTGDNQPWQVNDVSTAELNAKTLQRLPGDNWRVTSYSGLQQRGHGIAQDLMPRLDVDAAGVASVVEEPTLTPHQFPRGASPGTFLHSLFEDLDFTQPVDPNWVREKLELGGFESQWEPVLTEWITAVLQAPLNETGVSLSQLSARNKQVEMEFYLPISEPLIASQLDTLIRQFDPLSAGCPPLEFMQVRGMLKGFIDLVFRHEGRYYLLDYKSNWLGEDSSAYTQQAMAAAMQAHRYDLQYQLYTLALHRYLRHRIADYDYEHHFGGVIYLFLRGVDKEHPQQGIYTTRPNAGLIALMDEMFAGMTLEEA
# Assay: E. coli RecBCD inhibitors, dose response, counter-screen for AddAB inhibitor project, absorbance, V66 E. coli, mutant T4 phage (AID 492957)
# Format: functional, cell-based, Escherichia coli str. K-12 substr. MG1655
smiles,measurement,value
CCCCC(=O)NC(c1ccc(N(CC)CC)cc1)c1ccc2cccnc2c1O (stereo unspecified),IC50,> 119 µM (inactive)

# — ChEMBL document CHEMBL1201862, “PubChem BioAssay data set” (2004)
